Data: paper PMC8658889, “Seriniquinones as Therapeutic Leads for Treatment of BRAF and NRAS Mutant Melanomas” (Molecules, 2021)

Tested on: SK-MEL-28
Assay: Clonogenic assay
Type: cell-based, Human
Conditions: SK-MEL-28, 24 h treatment at half IC50 and IC50, 6 days in drug-free medium
Protocol: […] (2.5 × 10^5) cells in 1 mL of media were seeded in cell culture dishes and, 24 h later, treated with SQ1 (0.3 µM and 0.6 µM for SK-MEL-28 and 0.9 µM and 1.8 µM for SK-MEL-147) or SQ2 (0.05 µM and 0.1 µM for SK-MEL-28 and 0.6 µM and 1.2 µM for SK-MEL-147) for 24 h. Doxorubicin (DOX; 1.4 µM for SK-MEL-28 and 0.8 µM for SK-MEL-147) was used as positive control and 0.5% DMSO as negative control.
After the cells were submitted to the treatment scheme (Section 4.6), adherent cells were collected, plated at 1 × 10^3 cell/plate on 35-mm plates and maintained in culture for 6 days in treatment-free medium. The medium was replaced every 2 days. Cells were then fixed and stained with a solution of 20% MeOH (Synth, Diadema, São Paulo, Brazil) and 0.5 g crystal violet (Sigma-Aldrich, St. Louis, MO, USA). Images were acquired using G:BOX Chemi XRQ (Syngene, Cambridge, UK) and quantified using the ImageJ program (ColonyArea; US National Institutes of Health, Bethesda, MD, USA).

Structure (SMILES): O=c1c2ccccc2c(=O)c2c1sc1c(=O)c3ccccc3c(=O)c12 [SQ1, seriniquinone]
- reduction of the colony levels: greater than 50%
